Experimental data published in US4206215A, “Antimicrobial bis-[4-(substituted-amino)-1-pyridinium]alkanes” (Sterling Drug Inc., priority 1977, dated 1980).
Read-outs that look alike come from different tables or passages of the source.

Key:
S. pyogen. C203 = test: In vitro antibacterial activity, MIC (modified Autotiter method); type: cell-based, Streptococcus pyogenes; conditions: 18-20 hours at 37° C.; for MIC: Streptococcus pyogenes, 20 h, read-out: MIC S. pyogen. C203
In short: (§1)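 Broth microdilution on an automated Autotiter: compounds tested as solutions, starting stock 1,000 mcg./ml., twofold serial dilution in water, final 500 to 0.06 mcg./ml. in inoculated semisynthetic (glucose) medium.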

T. menta. 9129 = test: In vitro antifungal activity, MIC (modified Autotiter method); type: cell-based, Trichophyton mentagrophytes; conditions: 18-20 hours at 37° C.; for MIC: Trichophyton mentagrophytes, 20 h, read-out: MIC T. menta. 9129
In short: as §1

E. coli AB1932-1 = test: In vitro antibacterial activity, MIC (modified Autotiter method); type: cell-based, Escherichia coli; conditions: 18-20 hours at 37° C.; for MIC: Escherichia coli, AB19321, 20 h, read-out: MIC E. coli AB1932-1
In short: as §1

E. coli Vogel = test: as above; type: cell-based, Escherichia coli; conditions: 18-20 hours at 37° C.; for MIC: Escherichia coli, 20 h, read-out: MIC E. coli Vogel
In short: as §1

E. coli 100/B22 = test: as above; type: cell-based, Escherichia coli; conditions: for MIC: Escherichia coli, 100/B22, 20 h, read-out: MIC E. coli 100/B22, 18-20 hours at 37° C.
In short: as §1

[1] = test system: Herpes simplex type 2 virus; test: Virucidal activity in vitro (plaque inhibition test); type: cell-based; conditions: 2 mg. of test compound on growth medium
Protocol: Virucidal activity of representative examples against Herpes simplex type 2 virus was determined in vitro employing a procedure similar to the plaque inhibition test for detection of specific inhibitors of DNA-containing viruses published by E. C. Herrmann, Jr., Proc. Soc. Exp. Biol. Med. 107, 142 (1961) wherein 2 mg. of the test compound was placed on the surface of the growth medium.

P. mirab. MGH-1 = test: In vitro antibacterial activity, MIC (modified Autotiter method); type: cell-based, Proteus mirabilis; conditions: 18-20 hours at 37° C.; for MIC: Proteus mirabilis, 20 h, read-out: MIC P. mirab. MGH-1
In short: as §1

[2] = test system: young adult male Swiss-Webster strain albino mice; test: Acute oral toxicity (ALD50); type: in vivo
Protocol: (§2) The acute oral toxicity (ALD50) of several representative examples was determined as follows: Groups of 3 young adult male Swiss-Webster strain albino mice were fasted approximately 4 hours before medication and then medicated once orally by stomach tube.

[3] = Acute oral toxicity (ALD50); type: in vivo; conditions: mouse, in vivo, po, mice, read-out: 7-Day ALD50
Protocol: as §2

[4] = test system: Streptococcus mutans OMZ-61; test: Dental plaque-preventive effectiveness in the presence of sterile human saliva (50%); type: cell-based; conditions: 50% sterile human saliva
Protocol: The dental plaque preventive activity of certain of the compounds of the present invention was determined by measuring the ability of these compounds to inhibit the production of dental plaque by Streptococcus mutans OMZ-61 as follows:
A culture medium for the plaque-producing Streptococcus mutans OMZ-61 containing 1.5 g. of BBL beef extract, 5 g. of sodium chloride, 10 g. of dehydrated trypticase, 5 g. of sucrose and sufficient distilled water to give a total volume of 1000 ml. is adjusted to pH 7.0 and sterilized by membrane filtration. The medium is dispensed aseptically in 10-ml. aliquots into 150×16 mm. test tubes and stored at refrigeration temperature until used.
Two concentrations of the compound to be tested are prepared by dissolving 100 mg. of the compound in 1 ml. of distilled water with the aid of sufficient 0.1 N sodium hydroxide, 10% dimethylsulfoxide or 10% N,N-dimethylformamide and diluting the resulting solution to 10 ml. with distilled water. This 1.0% solution and a 1:10 dilution in distilled water (0.1%) are sterilized by membrane filtration before use.
A sterile piece of plaque-free natural tooth enamel or synthetic hydroxylapatite is suspended in each concentration of compound for two 1-minute periods, each followed by a 1-minute air drying period. Each piece is then suspended and agitated for 5 minutes in individual test tubes containing sterile distilled water (rinse). They are then suspended in 10 ml. of liquid beef extract medium to which has been added 0.3 ml. of a 24-hr. anaerobic culture of Streptococcus mutans. The tubes containing the "treated" hydroxylapatite and the Streptococcus mutans are then incubated anaerobically at 37° C. for 24 hours. The same process of two 1-minute soaks in the solution of compound, each followed by 1 minute of air drying and the final 5-minute rinse is repeated before once again suspending the hydroxylapatite in a fresh tube containing 10 ml. of beef extract medium and 0.3 ml. of inoculum. At the end of the second 24-hour period, each piece of hydroxylapatite is rinsed for 1 minute in 3 successive tubes of distilled water. These are then suspended for 1 minute in a solution of F, D & C Red No. 3 dye. This staining procedure is used in order to identify more easily the development of plaque after the 48-hour period of exposure to the plaque-producing organism. The staining period is followed by another 10-second rinse to remove excess dye. Any plaque formation stains a brilliant pink. […] Active compounds are tested at successively lower doses in order to determine the minimum effective concentration. On some occasions, the interference of plaque production is caused by the inhibition of growth of the organism in the culture medium because the compound has been leached from the hydroxylapatite to produce an antibacterial level in the medium. When this occurs, the compound is tested at lower concentrations until the growth of the organism in the surrounding medium is equal to that in the nonmedicated control culture. Plaque may or may not be formed at these lower concentrations.
Dental plaque-preventive effectiveness in the presence of sterile human saliva (50%) was determined for representative examples.

C. albicans Wisc. = test: In vitro antifungal activity, MIC (modified Autotiter method); type: cell-based, Candida albicans; conditions: 18-20 hours at 37° C.; for MIC: Candida albicans, 20 h, read-out: MIC C. albicans Wisc.
In short: as §1

C. albicans 10231 = test: as above; type: cell-based, Candida albicans; conditions: 18-20 hours at 37° C.; for MIC: Candida albicans, 10231, 20 h, read-out: MIC C. albicans 10231
In short: as §1

Ps. aerug. MGH-2 = test: In vitro antibacterial activity, MIC (modified Autotiter method); type: cell-based, Pseudomonas aeruginosa; conditions: 18-20 hours at 37° C.; for MIC: Pseudomonas aeruginosa, 20 h, read-out: MIC Ps. aerug. MGH-2
In short: as §1

A. niger 16404 = test: In vitro antifungal activity, MIC (modified Autotiter method); type: cell-based, Aspergillus niger; conditions: 18-20 hours at 37° C.; for MIC: Aspergillus niger, 16404, 20 h, read-out: MIC A. niger 16404
In short: as §1

K. pneum. 39645 = test: In vitro antibacterial activity, MIC (modified Autotiter method); type: cell-based, Klebsiella pneumoniae; conditions: 18-20 hours at 37° C.; for MIC: Klebsiella pneumoniae, 20 h, read-out: MIC K. pneum. 39645
In short: as §1

S. Aureus Smith = test: as above; type: cell-based, Staphylococcus aureus; conditions: 18-20 hours at 37° C.; for MIC: Staphylococcus aureus, 20 h, read-out: MIC S. Aureus Smith
In short: as §1

[5] = 125 mg/kg oral, suspension in 1% G.T.
[6] = 250 mg/kg oral, suspension in 1% G.T.
[7] = 500 mg/kg oral, suspension in 1% G.T.
[8] = 1000 mg/kg oral, suspension in 1% G.T.
[9] = suspension in 1% gum tragacanth
[10] = 125 mg/kg oral, aqueous solution
[11] = 250 mg/kg oral, aqueous solution
[12] = 500 mg/kg oral, aqueous solution
[13] = 1000 mg/kg oral, aqueous solution

Row | Compound | MIC (S. pyogen. C203) [µg/mL] | MIC (T. menta. 9129) [µg/mL] | MIC (E. coli AB1932-1) [µg/mL] | MIC (E. coli Vogel) [µg/mL] | MIC (E. coli 100/B22) [µg/mL] | MIC (P. mirab. MGH-1) [µg/mL] | Mortality 7 Days [2, 5] | Mortality 24 Hrs [2, 5] | Mortality 7 Days [2, 6] | Mortality 24 Hrs [2, 6] | Mortality 7 Days [2, 7] | Mortality 24 Hrs [2, 7] | Mortality 7 Days [2, 8] | Mortality 24 Hrs [2, 8] | LD50 at 168 h [3, 9] [mg/kg] | Dental Plaque Preventive Activity in 50% saliva Minimum Effective Conc. (%) [4] [%] | MIC (C. albicans Wisc.) [µg/mL] | MIC (C. albicans 10231) [µg/mL] | MIC (Ps. aerug. MGH-2) [µg/mL] | MIC (K. pneum. 39645) [µg/mL] | also measured
1 | CCCCC(CC)CNc1cc[n+](CCCCCCCC[n+]2ccc(NCC(CC)CCCC)cc2)cc1 (centres unmarked) [Example 56, 1,8-bis-[4-(2-ethylhexylamino)-1-pyridinium]octane dibromide] | 0.16 | 1.95 | 0.98 | 3.9 | 1.95 | 125 | 0/3 | 0/3 | 0/3 | 0/3 | 0/3 | 0/3 | 1/3 | 1/3 | > 1000 | 0.1 | 3.9 | 3.9 | 125 | 7.8 | Virucidal activity against Herpes simplex type 2 virus [1]: active; MIC (A. niger 16404): 15.6 µg/mL; MIC (S. Aureus Smith): 0.31 µg/mL
2 | CCCCCCCCNc1cc[n+](CCCCCCCCCC[n+]2ccc(NCCCCCCCC)cc2)cc1 [10A,B, 1,10-bis-[4-(octylamino)-1-pyridinium]decane dichloride] | 1 | 1.95 | 1 | 1.95 | 1 | 3.9 | – | – | – | – | – | – | – | – | – | – | 1.95 | 1.95 | 3.9 | 1.95 | Mortality 7 Days [2, 10]: 0/3; Mortality 24 Hrs [2, 10]: 0/3; Mortality 7 Days [2, 11]: 0/3; Mortality 24 Hrs [2, 11]: 0/3; Mortality 7 Days [2, 12]: 0/3; Mortality 24 Hrs [2, 12]: 0/3; Mortality 7 Days [2, 13]: 0/3; Mortality 24 Hrs [2, 13]: 0/3; LD50 at 168 h ([3]; aqueous solution): > 1000 mg/kg; Dental Plaque Preventive Activity in 50% saliva Minimum Effective Conc. (%) ([4]; listed as 10 A, B): 0.005%; MIC A. niger 16404 (A. niger 16404): 7.8 µg/mL; MIC (S. Aureus Smith): 0.5 µg/mL
3 | CCCCCCCCNc1cc[n+](CCCCCC[n+]2ccc(NCCCCCCCC)cc2)cc1 [Example 14] | – | – | – | – | – | – | 0/3 | 0/3 | 0/3 | 0/3 | 0/3 | 0/3 | 1/3 | 0/3 | > 1000 | 0.1 | – | – | – | – | MIC S. pyogen. C203 (S. pyogen. C203): 0.5 µg/mL; MIC T. menta. 9129 (T. menta. 9129): 1.0 µg/mL; MIC E. coli AB1932-1 (E. coli AB1932-1): 0.5 µg/mL; MIC E. coli Vogel (E. coli Vogel): 1.0 µg/mL; MIC E. coli 100/B22 (E. coli 100/B22; 18-20 hours at 37° C.): 0.5 µg/mL; MIC P. mirab. MGH-1 (P. mirab. MGH-1): 15.6 µg/mL; MIC C. albicans Wisc. (C. albicans Wisc.): 1.95 µg/mL; MIC C. albicans 10231 (C. albicans 10231): 1.95 µg/mL; MIC Ps. aerug. MGH-2 (Ps. aerug. MGH-2): 31.3 µg/mL; MIC A. niger 16404 (A. niger 16404): 15.6 µg/mL; MIC K. pneum. 39645 (K. pneum. 39645): 1.95 µg/mL; MIC S. Aureus Smith (S. Aureus Smith): 0.25 µg/mL
4 | CCCCCCCCNc1cc[n+](CCCCCCCCC[n+]2ccc(NCCCCCCCC)cc2)cc1 [Example 44A, 1,9-bis-[4-(octylamino)-1-pyridinium]nonane dibromide] | 0.5 | 1 | 1 | 1 | 1 | 15.6 | 0/3 | 0/3 | 0/3 | 0/3 | 0/3 | 0/3 | 0/3 | 0/3 | > 1000 | 0.005 | 1.95 | 1 | 3.9 | 1.95 | MIC (A. niger 16404): 3.9 µg/mL; MIC (S. Aureus Smith): 1 µg/mL
